Source: ChEMBL document CHEMBL6096629, “Indolo[3,2-c]isoquinoline Hydroxamic Acid Derivatives as Novel Orally Topoisomerase-Histone Deacetylase Dual Inhibitors for NSCLC Therapy” (J Med Chem, 2025)
Blank lines part the entries; values can stand above or below the compound they belong to.

Columns and labels:
Histone deacetylase 3 = Histone deacetylase 3 (Homo sapiens, UniProt O15379)
Description: Inhibition of HDAC3 (unknown origin)

Histone deacetylase 5 = Histone deacetylase 5 (Homo sapiens, UniProt Q9UQL6)
Description: Inhibition of HDAC5 (unknown origin)

[1] = biological target: T1, Protein deacetylase HDAC6 (Homo sapiens, UniProt Q9UBN7)
T1 sequence (Q9UBN7 whole entry): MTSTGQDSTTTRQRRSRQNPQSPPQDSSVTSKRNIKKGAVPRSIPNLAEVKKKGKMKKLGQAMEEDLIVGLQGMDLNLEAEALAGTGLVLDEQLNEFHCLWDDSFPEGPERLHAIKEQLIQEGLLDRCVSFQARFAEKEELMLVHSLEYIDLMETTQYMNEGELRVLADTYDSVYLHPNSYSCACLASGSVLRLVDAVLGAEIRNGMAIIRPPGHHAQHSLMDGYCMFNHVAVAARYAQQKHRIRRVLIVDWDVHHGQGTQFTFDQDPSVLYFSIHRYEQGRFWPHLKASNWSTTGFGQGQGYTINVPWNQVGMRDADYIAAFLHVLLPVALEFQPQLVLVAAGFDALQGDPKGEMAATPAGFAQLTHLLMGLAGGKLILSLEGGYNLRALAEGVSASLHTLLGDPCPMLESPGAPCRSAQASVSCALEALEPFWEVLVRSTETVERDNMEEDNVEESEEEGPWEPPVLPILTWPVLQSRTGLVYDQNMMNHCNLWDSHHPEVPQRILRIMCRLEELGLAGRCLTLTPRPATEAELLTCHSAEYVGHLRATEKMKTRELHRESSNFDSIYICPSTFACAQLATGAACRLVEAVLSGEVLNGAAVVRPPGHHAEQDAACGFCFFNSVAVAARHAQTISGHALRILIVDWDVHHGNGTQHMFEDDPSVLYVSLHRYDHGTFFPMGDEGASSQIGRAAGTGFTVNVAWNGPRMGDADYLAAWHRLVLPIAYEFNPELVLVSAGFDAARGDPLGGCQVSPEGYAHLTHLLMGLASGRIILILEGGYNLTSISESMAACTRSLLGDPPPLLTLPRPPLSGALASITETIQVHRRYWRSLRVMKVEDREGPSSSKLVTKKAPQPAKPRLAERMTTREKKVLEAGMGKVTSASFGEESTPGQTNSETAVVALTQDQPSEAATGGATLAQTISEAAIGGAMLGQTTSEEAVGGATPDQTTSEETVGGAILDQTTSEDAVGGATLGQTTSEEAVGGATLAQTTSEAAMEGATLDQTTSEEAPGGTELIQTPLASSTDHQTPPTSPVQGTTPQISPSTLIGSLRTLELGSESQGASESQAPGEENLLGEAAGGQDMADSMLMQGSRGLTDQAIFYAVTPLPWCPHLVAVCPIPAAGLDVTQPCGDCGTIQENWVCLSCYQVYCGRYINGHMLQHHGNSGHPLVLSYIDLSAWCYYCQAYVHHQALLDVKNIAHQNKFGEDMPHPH
Description: Inhibition of HDAC6 (unknown origin)

Histone deacetylase 7 = biological target: T2, Histone deacetylase 7 (Homo sapiens, UniProt Q8WUI4)
T2 sequence (Q8WUI4 whole entry): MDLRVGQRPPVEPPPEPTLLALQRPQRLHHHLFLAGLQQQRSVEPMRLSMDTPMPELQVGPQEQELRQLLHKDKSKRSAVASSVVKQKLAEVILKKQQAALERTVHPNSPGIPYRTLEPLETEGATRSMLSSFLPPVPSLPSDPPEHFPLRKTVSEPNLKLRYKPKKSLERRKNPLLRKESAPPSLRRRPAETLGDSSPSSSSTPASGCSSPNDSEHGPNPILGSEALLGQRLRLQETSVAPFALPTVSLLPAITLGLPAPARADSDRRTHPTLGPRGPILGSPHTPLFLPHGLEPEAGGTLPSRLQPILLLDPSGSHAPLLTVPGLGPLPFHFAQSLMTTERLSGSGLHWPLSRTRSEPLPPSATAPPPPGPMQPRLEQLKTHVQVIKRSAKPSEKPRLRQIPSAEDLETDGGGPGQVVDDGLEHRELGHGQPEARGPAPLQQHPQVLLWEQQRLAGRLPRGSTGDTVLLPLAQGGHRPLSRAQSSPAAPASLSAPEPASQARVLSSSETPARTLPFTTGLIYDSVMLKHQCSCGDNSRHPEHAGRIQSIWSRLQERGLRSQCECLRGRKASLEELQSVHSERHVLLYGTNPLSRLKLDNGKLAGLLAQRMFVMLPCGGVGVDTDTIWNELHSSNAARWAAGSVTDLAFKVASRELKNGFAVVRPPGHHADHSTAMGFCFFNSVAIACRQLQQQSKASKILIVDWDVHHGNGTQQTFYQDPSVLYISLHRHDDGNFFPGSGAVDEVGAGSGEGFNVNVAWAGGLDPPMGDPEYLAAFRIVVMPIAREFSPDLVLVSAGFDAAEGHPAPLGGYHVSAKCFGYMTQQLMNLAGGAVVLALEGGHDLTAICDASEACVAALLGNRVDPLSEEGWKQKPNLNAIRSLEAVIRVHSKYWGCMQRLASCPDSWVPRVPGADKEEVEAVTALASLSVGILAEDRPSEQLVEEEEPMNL
Description: Inhibition of HDAC7 (unknown origin)

Histone deacetylase 2 = Histone deacetylase 2 (Homo sapiens, UniProt Q92769); assay: Inhibition of HDAC2 (unknown origin)
[2] = biological target: T3, Polyamine deacetylase HDAC10 (Homo sapiens, UniProt Q969S8)
T3 sequence (Q969S8 whole entry): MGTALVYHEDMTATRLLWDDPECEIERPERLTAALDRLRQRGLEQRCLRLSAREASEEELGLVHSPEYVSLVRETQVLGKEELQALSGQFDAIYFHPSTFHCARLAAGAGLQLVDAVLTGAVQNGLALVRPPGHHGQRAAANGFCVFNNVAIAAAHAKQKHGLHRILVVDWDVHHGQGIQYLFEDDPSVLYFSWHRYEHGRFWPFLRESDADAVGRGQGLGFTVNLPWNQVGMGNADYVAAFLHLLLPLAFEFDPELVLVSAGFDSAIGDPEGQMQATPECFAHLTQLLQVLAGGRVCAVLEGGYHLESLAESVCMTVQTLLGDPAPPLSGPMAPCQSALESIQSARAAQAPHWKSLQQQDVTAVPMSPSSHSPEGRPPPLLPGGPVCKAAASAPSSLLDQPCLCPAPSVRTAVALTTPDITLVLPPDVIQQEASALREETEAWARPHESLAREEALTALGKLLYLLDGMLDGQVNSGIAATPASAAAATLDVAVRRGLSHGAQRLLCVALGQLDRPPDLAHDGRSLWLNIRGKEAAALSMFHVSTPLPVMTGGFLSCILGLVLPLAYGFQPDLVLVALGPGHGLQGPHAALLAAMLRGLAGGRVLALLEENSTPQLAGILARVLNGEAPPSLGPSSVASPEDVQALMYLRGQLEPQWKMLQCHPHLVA
Description: Inhibition of HDAC10 (unknown origin)

Histone deacetylase 4 = Histone deacetylase 4 (Homo sapiens, UniProt P56524)
Description: Inhibition of HDAC4 (unknown origin)

Histone deacetylase 8 = biological target: T4, Histone deacetylase 8 (Homo sapiens, UniProt Q9BY41)
T4 sequence (Q9BY41 whole entry): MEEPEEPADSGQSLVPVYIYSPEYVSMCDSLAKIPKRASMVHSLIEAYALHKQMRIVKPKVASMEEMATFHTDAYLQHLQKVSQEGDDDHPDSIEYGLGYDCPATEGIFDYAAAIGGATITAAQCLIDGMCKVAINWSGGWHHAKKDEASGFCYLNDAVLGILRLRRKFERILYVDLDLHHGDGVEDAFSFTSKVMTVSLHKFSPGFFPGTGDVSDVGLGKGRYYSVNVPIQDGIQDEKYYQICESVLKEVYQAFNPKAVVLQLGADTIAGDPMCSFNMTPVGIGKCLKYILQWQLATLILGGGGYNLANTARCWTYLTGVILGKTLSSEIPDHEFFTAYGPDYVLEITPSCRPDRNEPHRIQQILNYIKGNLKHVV
Description: Inhibition of HDAC8 (unknown origin)

Histone deacetylase 11 = biological target: T5, Histone deacetylase 11 (Homo sapiens, UniProt Q96DB2)
T5 sequence (Q96DB2 whole entry): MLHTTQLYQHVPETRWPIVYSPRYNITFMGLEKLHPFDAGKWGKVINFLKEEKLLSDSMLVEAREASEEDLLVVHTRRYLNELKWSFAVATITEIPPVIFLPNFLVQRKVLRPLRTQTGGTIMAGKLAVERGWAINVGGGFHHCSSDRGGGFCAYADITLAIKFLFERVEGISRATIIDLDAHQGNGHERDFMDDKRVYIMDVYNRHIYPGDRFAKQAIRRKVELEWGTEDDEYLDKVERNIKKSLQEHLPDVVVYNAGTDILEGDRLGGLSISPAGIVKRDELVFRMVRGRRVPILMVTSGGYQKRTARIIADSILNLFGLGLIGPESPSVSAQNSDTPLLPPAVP
Description: Inhibition of HDAC11 (unknown origin)

Histone deacetylase 9 = Histone deacetylase 9 (Homo sapiens, UniProt Q9UKV0)
Description: Inhibition of HDAC9 (unknown origin)

NCI-H2228 [3] = assay: Antiproliferative activity against human NCI-H2228 cells incubated for 24 hrs in presence of SAHA by MTT assay; assay type: functional, cell-based; details: NCI-H2228, 24 h
HCT-116 = assay: cells; details: Homo sapiens, HCT-116, 24 h
Description: Antiproliferative activity against human HCT-116 cells incubated for 24 hrs in presence of SAHA by MTT assay

NCI-H1975 [4] = assay: Antitumor activity against human NCI-H1975 cells xenografted in BALB/c nude mouse at 10 mg/kg, ip bid treated for 21 days in presence of SAHA relative to control; assay type: functional; details: time 21 day
MDA-MB-231 [5] = assay: cells; assay type: functional, cell-based; details: Homo sapiens, MDA-MB-231, 24 h
Huh-7 [6] = assay: Antiproliferative activity against human Huh-7 cells incubated for 24 hrs in presence of SAHA by MTT assay; assay type: functional, cell-based; details: Huh-7, 24 h
MCF7 = assay: cells; details: Homo sapiens, MCF7, 24 h
Description: Antiproliferative activity against human MCF7 cells incubated for 24 hrs in presence of SAHA by MTT assay

MDA-MB-231 [7] = assay: cells; details: Homo sapiens, MDA-MB-231, 24 h
Description: Antiproliferative activity against human MDA-MB-231 cells incubated for 24 hrs in presence of SAHA by MTT assay

[8] = Toxicity BALB/c nude mouse xenografted with human NCI-H1975 cells assessed as body weight loss at 10 mg/kg, ip bid in presence of SAHA treated for 21 days (Rvb > 11.5 %); assay type: organism-based; details: in vivo, 504 h, time 21 day
NCI-H2228 [9] = assay: Antiproliferative activity against human NCI-H2228 cells incubated for 24 hrs by MTT assay; assay type: functional, cell-based; details: NCI-H2228, 24 h
NCI-H1975 [10] = assay: Induction of cell cycle arrest in human NCI-H1975 cells assessed as accumulation at G2/M phase incubated for 48 hrs in presence of SAHA by PI staining based flow cytometry relative to control; assay type: functional
NCI-H1975 [11] = assay: Induction of apoptosis in human NCI-H1975 cells incubated for 24 hrs in presence of SAHA by Annexin V-FITC/PI staining based flow cytometry relative to control; assay type: functional
NCI-H1975 [12] = assay: Inhibition of colony formation in human NCI-H1975 cells incubated for 24 hrs followed by re-culturing in fresh medium without compound measured after 14 days in presence of SAHA by crystal violet staining based analysis relative to control; assay type: functional
Huh-7 [13] = assay: Antiproliferative activity against human Huh-7 cells incubated for 24 hrs by MTT assay; assay type: functional, cell-based; details: Huh-7, 24 h
NCI-H1975 [14] = assay: Inhibition of cell migration in human NCI-H1975 cells measured after 24 to 48 hrs in presence of SAHA by wound healing assay relative to control; assay type: functional; details: time 24-48 hrs
PC-3 = assay: Antiproliferative activity against human PC-3 cells incubated for 24 hrs in presence of SAHA by MTT assay; assay type: functional, cell-based; details: PC-3, 24 h
NCI-H1975 [15] = assay: Induction of apoptosis in human NCI-H1975 cells at 4 uM incubated for 24 hrs by Annexin V-FITC/PI staining based flow cytometry relative to control; assay type: functional
NCI-H1975 [16] = assay: Induction of apoptosis in human NCI-H1975 cells at 4 uM incubated for 24 hrs in presence of Irinotecan by Annexin V-FITC/PI staining based flow cytometry relative to control; assay type: functional
NCI-H1975 [17] = assay: Induction of cell cycle arrest in human NCI-H1975 cells assessed as accumulation at G2/M phase at 4 uM incubated for 48 hrs in presence of Irinotecan by PI staining based flow cytometry relative to control; assay type: functional
NCI-H1975 [18] = assay: Induction of DNA damage in human NCI-H1975 cells assessed as DNA tail formation at 8 uM incubated for 48 hrs by Comet assay relative to control; assay type: functional
[19] = Toxicity BALB/c nude mouse xenografted with human NCI-H1975 cells assessed as body weight loss at 100 mg/kg, po qd in presence of Irinotecan treated for 21 days (Rvb > 11.5 %); assay type: organism-based; details: in vivo, 504 h, time 21 day
NCI-H1975 [20] = assay: Induction of cell cycle arrest in human NCI-H1975 cells assessed as accumulation at G2/M phase at 4 uM incubated for 48 hrs by PI staining based flow cytometry relative to control; assay type: functional

Histone deacetylase 4, sequence (P56524 whole entry): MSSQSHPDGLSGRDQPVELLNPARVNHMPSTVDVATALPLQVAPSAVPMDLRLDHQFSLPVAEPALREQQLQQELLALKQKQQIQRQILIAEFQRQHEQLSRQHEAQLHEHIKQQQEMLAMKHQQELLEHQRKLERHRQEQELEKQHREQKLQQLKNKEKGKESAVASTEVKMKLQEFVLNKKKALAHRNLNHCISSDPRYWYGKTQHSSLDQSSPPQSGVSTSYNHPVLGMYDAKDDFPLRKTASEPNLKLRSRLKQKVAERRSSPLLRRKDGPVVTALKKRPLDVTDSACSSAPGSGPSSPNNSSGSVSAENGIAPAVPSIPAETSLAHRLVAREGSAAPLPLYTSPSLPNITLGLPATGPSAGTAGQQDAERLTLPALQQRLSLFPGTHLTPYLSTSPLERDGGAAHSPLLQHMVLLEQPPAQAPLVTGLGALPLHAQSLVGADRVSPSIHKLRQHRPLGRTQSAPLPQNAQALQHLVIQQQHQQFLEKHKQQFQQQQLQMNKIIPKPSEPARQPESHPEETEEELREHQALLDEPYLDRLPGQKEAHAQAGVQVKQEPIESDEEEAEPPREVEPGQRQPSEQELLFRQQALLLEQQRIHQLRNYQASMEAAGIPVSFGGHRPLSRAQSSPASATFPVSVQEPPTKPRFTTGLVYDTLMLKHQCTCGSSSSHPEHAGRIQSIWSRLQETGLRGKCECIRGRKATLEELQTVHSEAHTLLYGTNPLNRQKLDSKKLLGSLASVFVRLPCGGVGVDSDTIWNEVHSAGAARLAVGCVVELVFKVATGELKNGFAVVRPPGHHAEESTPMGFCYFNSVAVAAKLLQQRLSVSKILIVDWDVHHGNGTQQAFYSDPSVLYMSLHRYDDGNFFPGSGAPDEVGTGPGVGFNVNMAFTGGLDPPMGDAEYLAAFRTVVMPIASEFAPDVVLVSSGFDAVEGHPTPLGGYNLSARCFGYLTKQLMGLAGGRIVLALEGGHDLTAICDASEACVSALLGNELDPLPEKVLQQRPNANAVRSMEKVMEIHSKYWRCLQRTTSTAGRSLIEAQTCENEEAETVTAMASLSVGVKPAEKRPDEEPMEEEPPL
Histone deacetylase 2, sequence (Q92769 whole entry): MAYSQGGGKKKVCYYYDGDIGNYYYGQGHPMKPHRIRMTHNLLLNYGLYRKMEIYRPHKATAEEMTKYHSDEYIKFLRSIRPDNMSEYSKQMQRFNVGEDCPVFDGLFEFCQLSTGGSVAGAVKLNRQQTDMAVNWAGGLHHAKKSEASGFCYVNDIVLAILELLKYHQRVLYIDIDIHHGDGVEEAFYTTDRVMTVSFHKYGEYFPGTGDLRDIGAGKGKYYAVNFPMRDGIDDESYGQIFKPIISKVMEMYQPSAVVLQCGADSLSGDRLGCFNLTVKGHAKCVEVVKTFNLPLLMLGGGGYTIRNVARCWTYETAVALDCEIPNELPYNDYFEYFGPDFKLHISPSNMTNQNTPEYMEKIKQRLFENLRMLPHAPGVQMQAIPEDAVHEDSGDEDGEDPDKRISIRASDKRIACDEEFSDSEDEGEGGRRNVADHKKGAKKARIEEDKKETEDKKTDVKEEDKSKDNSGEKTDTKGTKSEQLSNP
Histone deacetylase 9, sequence (Q9UKV0 whole entry): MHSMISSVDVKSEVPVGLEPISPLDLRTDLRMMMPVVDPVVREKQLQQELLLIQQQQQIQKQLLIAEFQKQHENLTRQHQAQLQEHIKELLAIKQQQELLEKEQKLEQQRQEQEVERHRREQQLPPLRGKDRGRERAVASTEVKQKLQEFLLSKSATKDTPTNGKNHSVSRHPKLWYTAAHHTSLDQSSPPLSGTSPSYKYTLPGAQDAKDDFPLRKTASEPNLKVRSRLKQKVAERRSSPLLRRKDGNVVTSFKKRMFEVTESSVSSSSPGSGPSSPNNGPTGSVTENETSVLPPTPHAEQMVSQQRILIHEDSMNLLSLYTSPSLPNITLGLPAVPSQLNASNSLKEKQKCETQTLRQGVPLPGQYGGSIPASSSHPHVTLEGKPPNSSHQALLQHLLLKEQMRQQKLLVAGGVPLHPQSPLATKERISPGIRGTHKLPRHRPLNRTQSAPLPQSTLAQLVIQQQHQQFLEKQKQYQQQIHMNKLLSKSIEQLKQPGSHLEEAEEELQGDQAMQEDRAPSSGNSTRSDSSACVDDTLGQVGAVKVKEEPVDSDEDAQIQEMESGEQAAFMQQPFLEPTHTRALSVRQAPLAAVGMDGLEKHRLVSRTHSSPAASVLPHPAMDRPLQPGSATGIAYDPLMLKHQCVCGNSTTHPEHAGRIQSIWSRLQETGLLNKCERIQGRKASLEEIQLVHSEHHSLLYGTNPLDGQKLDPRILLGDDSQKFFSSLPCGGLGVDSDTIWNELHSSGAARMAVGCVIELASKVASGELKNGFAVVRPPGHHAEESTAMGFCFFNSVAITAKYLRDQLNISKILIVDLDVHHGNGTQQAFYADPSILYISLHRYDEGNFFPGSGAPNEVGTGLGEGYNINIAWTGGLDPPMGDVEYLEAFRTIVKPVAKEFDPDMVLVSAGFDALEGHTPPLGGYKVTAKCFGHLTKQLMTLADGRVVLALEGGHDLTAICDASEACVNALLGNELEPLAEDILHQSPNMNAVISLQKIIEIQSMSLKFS
Histone deacetylase 5, sequence (Q9UQL6 whole entry): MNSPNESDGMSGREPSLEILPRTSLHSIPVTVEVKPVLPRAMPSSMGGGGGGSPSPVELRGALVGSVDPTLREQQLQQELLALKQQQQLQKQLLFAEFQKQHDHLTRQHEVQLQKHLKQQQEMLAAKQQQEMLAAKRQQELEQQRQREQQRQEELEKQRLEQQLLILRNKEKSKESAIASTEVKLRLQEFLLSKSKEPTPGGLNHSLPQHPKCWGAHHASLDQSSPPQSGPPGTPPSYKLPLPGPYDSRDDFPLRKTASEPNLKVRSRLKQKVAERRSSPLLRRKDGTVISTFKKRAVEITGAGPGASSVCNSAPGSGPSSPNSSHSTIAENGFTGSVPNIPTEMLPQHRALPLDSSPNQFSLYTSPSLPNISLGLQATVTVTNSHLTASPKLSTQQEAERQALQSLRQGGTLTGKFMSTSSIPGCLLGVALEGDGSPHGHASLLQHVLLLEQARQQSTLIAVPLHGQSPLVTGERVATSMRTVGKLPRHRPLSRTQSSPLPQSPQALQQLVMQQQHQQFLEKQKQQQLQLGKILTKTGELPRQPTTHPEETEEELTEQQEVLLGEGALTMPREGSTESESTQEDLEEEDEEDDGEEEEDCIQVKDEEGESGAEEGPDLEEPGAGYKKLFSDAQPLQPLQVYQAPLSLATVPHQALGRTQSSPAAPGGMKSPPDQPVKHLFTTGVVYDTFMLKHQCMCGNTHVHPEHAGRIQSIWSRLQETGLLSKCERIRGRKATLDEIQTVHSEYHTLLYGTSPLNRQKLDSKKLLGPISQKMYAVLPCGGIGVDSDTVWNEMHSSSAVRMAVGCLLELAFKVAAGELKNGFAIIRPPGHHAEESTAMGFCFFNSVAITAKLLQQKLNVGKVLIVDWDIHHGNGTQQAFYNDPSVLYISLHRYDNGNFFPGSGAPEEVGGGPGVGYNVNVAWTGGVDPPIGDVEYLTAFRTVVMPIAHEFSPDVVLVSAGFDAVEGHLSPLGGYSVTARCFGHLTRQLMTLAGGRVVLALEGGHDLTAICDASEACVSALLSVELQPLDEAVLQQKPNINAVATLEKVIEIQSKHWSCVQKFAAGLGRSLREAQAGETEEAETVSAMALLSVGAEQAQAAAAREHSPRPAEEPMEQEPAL
Histone deacetylase 3, sequence (O15379 whole entry): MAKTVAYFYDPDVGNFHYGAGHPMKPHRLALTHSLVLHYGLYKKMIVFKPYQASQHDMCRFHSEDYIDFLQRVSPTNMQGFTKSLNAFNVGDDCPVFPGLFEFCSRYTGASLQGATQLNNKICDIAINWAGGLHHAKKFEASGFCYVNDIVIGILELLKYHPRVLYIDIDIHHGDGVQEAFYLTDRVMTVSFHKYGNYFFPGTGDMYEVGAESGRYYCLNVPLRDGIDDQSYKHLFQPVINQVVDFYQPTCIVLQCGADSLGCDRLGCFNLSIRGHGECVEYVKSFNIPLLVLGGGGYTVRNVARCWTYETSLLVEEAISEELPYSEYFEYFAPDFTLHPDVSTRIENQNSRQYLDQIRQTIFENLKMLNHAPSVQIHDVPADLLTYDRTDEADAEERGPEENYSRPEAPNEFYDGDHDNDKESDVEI

IC50 (Histone deacetylase 3): 3 nM
IC50 (Histone deacetylase 5): > 5000 nM
IC50 [1]: 4 nM
IC50 (Histone deacetylase 7): > 5000 nM
IC50 (Histone deacetylase 2): 3 nM
IC50 [2]: 6 nM
IC50 (Histone deacetylase 4): > 5000 nM
IC50 (Histone deacetylase 8): > 1000 nM
IC50 (Histone deacetylase 11): > 5000 nM
IC50 (Histone deacetylase 9): > 5000 nM
SMILES: O=C(CCCCCCn1c2cc3c(cc2c2ncc4ccccc4c21)OCO3)NO

IC50 (NCI-H2228 [3]): 1450 nM
IC50 (HCT-116): 730 nM
IC50 (MDA-MB-231 [5]): > 8000 nM
IC50 (Huh-7 [6]): 1790 nM
IC50 (MCF7): 970 nM
IC50 (MDA-MB-231 [7]): 1340 nM
IC50 (NCI-H2228 [9]): 3480 nM
IC50 (Huh-7 [13]): > 8000 nM
IC50 (PC-3): 1240 nM
SMILES: CCc1c2c(nc3ccc(OC(=O)N4CCC(N5CCCCC5)CC4)cc13)-c1cc3c(c(=O)n1C2)COC(=O)[C@]3(O)CC [IRINOTECAN]
inhibition in vivo at 10 mg/kg (NCI-H1975 [4]; Mus musculus, NCI-H1975, 504 h, read-out: TGI): 65.8%
T/C (NCI-H1975 [4]): 39.1%
Activity [8]: 22.4%
Activity (NCI-H1975 [10]): 35%
Activity (NCI-H1975 [11]): 56.1%
inhibition (INH) (NCI-H1975 [12]): 61.8%
inhibition (INH) (NCI-H1975 [14]): 40.7%

SMILES: O=C(CCCCCCC(=O)Nc1ccccc1)NO [VORINOSTAT]
Activity (NCI-H1975 [15]): 46%
Activity (NCI-H1975 [16]): 56.1%
Activity (NCI-H1975 [17]): 35%
Activity (NCI-H1975 [18]): 19.4%
Activity [19]: 22.4%
Activity (NCI-H1975 [20]): 30.4%
